System: gliomas
Details: single dose administered two days before rQNestin34.5v.2
Excerpt: Mammals are able to rapidly counteract HSV1 in the brain through their initial immune responses.

O=P1(N(CCCl)CCCl)NCCCO1 (centres unmarked) [cyclophosphamide]
effect on viral biodistribution, replication and efficacy: significantly enhances viral biodistribution, replication and efficacy
reduction of the dose of virus required to produce a survival effect: two orders of magnitude

— US10806761B2, “Oncolytic HSV1 vector and methods of use” (THE BRIGHAM AND WOMEN'S HOSPITAL, INC., priority 2015, dated 2020)
